Data on twelve molecules can be found in PubChem BioAssay AID256 (DTP/NCI, 2004).

Structures are written as SMILES. Where “and” joins values, the source holds several entries; their conditions need not be identical. Equal values may be shown once. Toxic doses and inconclusive results are not listed.

This experiment relates to CD2F1 mice, L1210 leukemia ip, survival T/C. Kind of experiment: NCI In Vivo Anticancer Drug Screen. Data for tumor model L1210 Leukemia (intraperitoneal) in CD2F1 (CDF1) mice. Particulars: higher = longer survival. Put shortly:
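Each value reflects a quotient of treated over vehicle control outcomes in mice with a transplanted tumor.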

Setting [1] is: endpoint: mean survival time, dose: 50.0 mg/kg/injection, schedule: Q01DX009 (ip), vehicle: Klucel (hydroxypropylcellulose) (HPC).
The mark [2] stands for this setting: endpoint: mean survival time, dose: 100.0 mg/kg/injection, schedule: Q01DX009 (ip), vehicle: Klucel (hydroxypropylcellulose) (HPC).
[3] abbreviates: endpoint: mean survival time, dose: 100.0 mg/kg/injection, schedule: Q01DX009 (ip), vehicle: saline with Tween-80.

In the case of `COc1ccc(NC(=O)Oc2ccccc2F)c(Cl)c1`, the T/C was 96 % of control under setting [1]; 107 % of control under setting [2]; 104 % of control (endpoint: mean survival time, dose: 200.0 mg/kg/injection, schedule: Q01DX009 (ip), vehicle: Klucel (hydroxypropylcellulose) (HPC)).
Turning to `CC(=O)NC1=NC(=O)/C(=C/Cc2cccs2)N1C`, the T/C by setting is: under setting [3], 101 % of control; (endpoint: mean survival time, dose: 200.0 mg/kg/injection, schedule: Q01DX009 (ip), vehicle: saline with Tween-80) 108 % of control.
As to `CO[C@@]12[C@@H]3N[C@@H]3CN1C1=C(C(=O)C(NCCc3ccccn3)=C(C)C1=O)[C@@H]2COC(N)=O`, the T/C (endpoint: median survival time, dose: 3.12 mg/kg/injection, schedule: Q01DX001 (ip), vehicle: saline with Tween-80) is 93 % of control; the T/C (endpoint: median survival time, dose: 3.13 mg/kg/injection, schedule: Q01DX005 (ip), vehicle: saline with Tween-80) was 153 % of control; the T/C (endpoint: median survival time, dose: 6.25 mg/kg/injection, schedule: Q01DX001 (ip), vehicle: saline with Tween-80) was 111 % of control; the T/C (endpoint: median survival time, dose: 6.25 mg/kg/injection, schedule: Q01DX005 (ip), vehicle: saline with Tween-80) was 164 % of control; the T/C (endpoint: median survival time, dose: 12.5 mg/kg/injection, schedule: Q01DX001 (ip), vehicle: saline with Tween-80) is 120 % of control; the T/C (endpoint: median survival time, dose: 12.5 mg/kg/injection, schedule: Q01DX005 (ip), vehicle: saline with Tween-80) was 166 % of control. The T/C is, setting by setting: (endpoint: median survival time, dose: 18.0 mg/kg/injection, schedule: Q01DX001 (ip), vehicle: saline with Tween-80) 153 % of control; (endpoint: median survival time, dose: 25.0 mg/kg/injection, schedule: Q01DX005 (ip), vehicle: saline with Tween-80) 89 % of control; (endpoint: median survival time, dose: 30.0 mg/kg/injection, schedule: Q01DX001 (ip), vehicle: saline with Tween-80) 160 % of control; (endpoint: median survival time, dose: 50.0 mg/kg/injection, schedule: Q01DX001 (ip), vehicle: saline with Tween-80) 188 % of control and 200 % of control; (endpoint: median survival time, dose: 83.32 mg/kg/injection, schedule: Q01DX001 (ip), vehicle: saline with Tween-80) 156 % of control; (endpoint: median survival time, dose: 3.12 micrograms/kg/injection, schedule: Q01DX001 (ip), vehicle: saline with Tween-80) 97 % of control. Moreover, the T/C by setting is: (endpoint: median survival time, dose: 6.25 micrograms/kg/injection, schedule: Q01DX001 (ip), vehicle: saline with Tween-80) 102 % of control; (endpoint: median survival time, dose: 12.5 micrograms/kg/injection, schedule: Q01DX001 (ip), vehicle: saline with Tween-80) 108 % of control; (endpoint: median survival time, dose: 25.0 micrograms/kg/injection, schedule: Q01DX001 (ip), vehicle: saline with Tween-80) 97 % of control; (endpoint: median survival time, dose: 50.0 micrograms/kg/injection, schedule: Q01DX001 (ip), vehicle: saline with Tween-80) 97 % of control; (endpoint: median survival time, dose: 3125.0 micrograms/kg/injection, schedule: Q01DX001 (ip), vehicle: saline with Tween-80) 118 % of control; (endpoint: median survival time, dose: 25000.0 micrograms/kg/injection, schedule: Q01DX001 (ip), vehicle: saline with Tween-80) 153 % of control. For the same molecule, the T/C (endpoint: median survival time, dose: 50000.0 micrograms/kg/injection, schedule: Q01DX001 (ip), vehicle: saline with Tween-80) is 322 % of control.
Turning to `Nc1nc2ccc(Cl)cc2[nH]1`, the T/C reads like this: under setting [1], 93 % of control; under setting [2], 91 % of control.
Regarding `CS(=O)(=O)CS(=O)(=O)OCCF`, the T/C reads like this: (endpoint: median survival time, dose: 3.12 mg/kg/injection, schedule: Q01DX009 (ip), vehicle: saline) 112 % of control; (endpoint: median survival time, dose: 3.13 mg/kg/injection, schedule: Q01DX009 (ip), vehicle: saline) 119 % of control; (endpoint: median survival time, dose: 12.5 mg/kg/injection, schedule: Q01DX009 (ip), vehicle: saline) 179 % of control and 189 % of control; (endpoint: median survival time, dose: 25.0 mg/kg/injection, schedule: Q01DX009 (ip), vehicle: saline) 182 % of control and 349 % of control.
Regarding `CC[n+]1ccc(Nc2ccc(NC(=O)c3ccc(C(=O)Nc4ccc(Nc5cc[n+](CC)c(N)n5)cc4)cc3)cc2)nc1N`, the T/C was 172 % of control (endpoint: mean survival time, dose: 12.5 mg/kg/injection, schedule: Q01DX009 (ip), vehicle: saline); 325 % of control (endpoint: mean survival time, dose: 25.0 mg/kg/injection, schedule: Q01DX009 (ip), vehicle: saline); 265 % of control (endpoint: mean survival time, dose: 40.0 mg/kg/injection, schedule: Q01DX009 (ip), vehicle: saline); 275 % of control (endpoint: mean survival time, dose: 50.0 mg/kg/injection, schedule: Q01DX009 (ip), vehicle: saline); 262 % of control (endpoint: mean survival time, dose: 59.0 mg/kg/injection, schedule: Q01DX009 (ip), vehicle: saline); 212 % of control (endpoint: mean survival time, dose: 89.0 mg/kg/injection, schedule: Q01DX009 (ip), vehicle: saline). For the same molecule, the T/C reads like this: (endpoint: mean survival time, dose: 150.0 mg/kg/injection, schedule: Q01DX001 (ip), vehicle: Klucel (hydroxypropylcellulose) (HPC)) 167 % of control; (endpoint: mean survival time, dose: 200.0 mg/kg/injection, schedule: Q01DX009 (ip), vehicle: saline) 118 % of control; (endpoint: mean survival time, dose: 225.0 mg/kg/injection, schedule: Q01DX001 (ip), vehicle: Klucel (hydroxypropylcellulose) (HPC)) 315 % of control.
On to `CC(C)(C)[Si](OP(N)(=O)N(CCCl)CCCl)(c1ccccc1)c1ccccc1` (stereo not drawn), for which the T/C was 102 % of control (endpoint: mean survival time, dose: 15.6 mg/kg/injection, schedule: Q01DX001 (ip), vehicle: distilled water + Tween-80); 110 % of control (endpoint: mean survival time, dose: 31.3 mg/kg/injection, schedule: Q01DX001 (ip), vehicle: distilled water + Tween-80); 110 % of control (endpoint: mean survival time, dose: 62.5 mg/kg/injection, schedule: Q01DX001 (ip), vehicle: distilled water + Tween-80); 122 % of control (endpoint: mean survival time, dose: 125.0 mg/kg/injection, schedule: Q01DX001 (ip), vehicle: distilled water + Tween-80); 111 % of control (endpoint: mean survival time, dose: 250.0 mg/kg/injection, schedule: Q01DX001 (ip), vehicle: distilled water + Tween-80); 117 % of control (endpoint: mean survival time, dose: 500.0 mg/kg/injection, schedule: Q01DX001 (ip), vehicle: distilled water + Tween-80).
Consider `O=c1cc[nH]c(=S)[nH]1.[Pd]`, for which the T/C runs as follows: (endpoint: mean survival time, dose: 3.13 mg/kg/injection, schedule: Q04DX003 (ip), vehicle: distilled water + Tween-80) 101 % of control; (endpoint: mean survival time, dose: 6.25 mg/kg/injection, schedule: Q04DX003 (ip), vehicle: distilled water + Tween-80) 101 % of control; (endpoint: mean survival time, dose: 12.5 mg/kg/injection, schedule: Q04DX003 (ip), vehicle: distilled water + Tween-80) 96 % of control; (endpoint: mean survival time, dose: 25.0 mg/kg/injection, schedule: Q04DX003 (ip), vehicle: distilled water + Tween-80) 98 % of control; (endpoint: mean survival time, dose: 50.0 mg/kg/injection, schedule: Q04DX003 (ip), vehicle: distilled water + Tween-80) 95 % of control; (endpoint: mean survival time, dose: 100.0 mg/kg/injection, schedule: Q04DX003 (ip), vehicle: distilled water + Tween-80) 90 % of control. Besides, where the note is “endpoint: mean survival time, dose: 200.0 mg/kg/injection, schedule: Q04DX003 (ip), vehicle: distilled water + Tween-80”, the T/C was 90 % of control.
Consider `CCCN(CCC)N=Nc1c(C(=O)OC)n[nH]c1C`, for which the T/C runs as follows: (endpoint: mean survival time, dose: 25.0 mg/kg/injection, schedule: Q01DX009 (ip), vehicle: saline with Tween-80) 97 % of control; (endpoint: mean survival time, dose: 50.0 mg/kg/injection, schedule: Q01DX009 (ip), vehicle: saline with Tween-80) 102 % of control; under setting [3], 104 % of control and 108 % of control; (endpoint: mean survival time, dose: 117.0 mg/kg/injection, schedule: Q01DX009 (ip), vehicle: saline with Tween-80) 122 % of control; (endpoint: mean survival time, dose: 178.0 mg/kg/injection, schedule: Q01DX009 (ip), vehicle: saline with Tween-80) 97 % of control.
Take `ClSc1c(Cl)c(Cl)c(Cl)c(Cl)c1Cl`: the T/C (endpoint: mean survival time, dose: 100.0 mg/kg/injection, schedule: Q04DX003 (ip), vehicle: saline with Tween-80) is 95 % of control; the T/C (endpoint: mean survival time, dose: 200.0 mg/kg/injection, schedule: Q04DX003 (ip), vehicle: saline with Tween-80) is 101 % of control; the T/C (endpoint: mean survival time, dose: 400.0 mg/kg/injection, schedule: Q04DX003 (ip), vehicle: saline with Tween-80) is 95 % of control.
`CC(C)C[CH2][Pb]([Cl])([CH2]CC(C)C)[CH2]CC(C)C`: the T/C was 97 % of control (endpoint: mean survival time, dose: 0.06 mg/kg/injection, schedule: Q01DX009 (ip), vehicle: saline); 97 % of control (endpoint: mean survival time, dose: 0.12 mg/kg/injection, schedule: Q01DX009 (ip), vehicle: saline); 97 % of control (endpoint: mean survival time, dose: 0.25 mg/kg/injection, schedule: Q01DX009 (ip), vehicle: saline); 100 % of control (endpoint: mean survival time, dose: 0.5 mg/kg/injection, schedule: Q01DX009 (ip), vehicle: saline); 100 % of control (endpoint: mean survival time, dose: 1.0 mg/kg/injection, schedule: Q01DX009 (ip), vehicle: saline).
`CCC1=C/C(=C\c2ccc3c(c2)OCO3)C(=O)S1`: the T/C was 93 % of control (endpoint: mean survival time, dose: 25.0 mg/kg/injection, schedule: Q04DX002 (ip), vehicle: saline with Tween-80); 89 % of control (endpoint: mean survival time, dose: 50.0 mg/kg/injection, schedule: Q04DX002 (ip), vehicle: saline with Tween-80); 93 % of control (endpoint: mean survival time, dose: 100.0 mg/kg/injection, schedule: Q04DX002 (ip), vehicle: saline with Tween-80).
